Assay results taken from ChEMBL document CHEMBL1201862, “PubChem BioAssay data set” (2004).
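Step 1: Grow cells in 96-well plates. Step 2: Expose to compound for 48 hours at 5 concentrations. Step 3: Interpolate endpoints linearly; if unreached, use highest concentration. Abbreviation: GI50, concentration required for 50% inhibition of growth.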 Activity calls are given as the source filed them. No stated cut-off is given here; in the data, active = GI50 up to about 1.1 µM and inactive = higher.

Key:
Assay in all cases: growth of human tumour cells (NCI), 48 h
HCT-116 = system: HCT-116
HOP-92 = system: HOP-92
HL-60 = system: HL-60
786-0 = system: 786-0
M14 = system: M14
CCRF-CEM = system: CCRF-CEM
UACC-62 = system: UACC-62
MCF7 = system: MCF7
NCI-H23 = system: NCI-H23
IGROV-1 = system: IGROV-1
K562 = system: K562
SF-295 = system: SF-295
BT-549 = system: BT-549
Hs-578T = system: Hs-578T
MOLT-4 = system: MOLT-4
SNB-75 = system: SNB-75
DU-145 = system: DU-145
ACHN = system: ACHN
PC-3 = system: PC-3
Malme-3M = system: Malme-3M

Measured: GI50

O=C(NCCN1CCOCC1)c1ccc2cc(C(=O)N3CC(CCl)c4ccc([N+](=O)[O-])cc43)[nH]c2c1 (stereo unspecified)
inactive: HCT-116 13.5 µM | HOP-92 8.24 µM | HL-60 6.14 µM | 786-0 4.41 µM | M14 7.38 µM | CCRF-CEM 7.82 µM | UACC-62 11.9 µM | MCF7 17.5 µM | NCI-H23 43.6 µM | IGROV-1 11.5 µM | K562 19.4 µM | SF-295 3.18 µM | BT-549 16.9 µM | Hs-578T 4.83 µM | MOLT-4 6.52 µM | SNB-75 6.7 µM | DU-145 17.5 µM | ACHN 12.4 µM | PC-3 15 µM

Cc1ccc(O)c(/N=N\c2c(O)cc(S(=O)(=O)O)c3ccccc23)c1
inactive: HCT-116 25.5 µM | HOP-92 > 100 µM | HL-60 16.4 µM | 786-0 57.5 µM | M14 24.6 µM | CCRF-CEM 23.1 µM | UACC-62 25.7 µM | MCF7 41.1 µM | IGROV-1 40.3 µM | K562 32.2 µM | SF-295 34.6 µM | BT-549 81.7 µM | Hs-578T > 100 µM | MOLT-4 26.5 µM | ACHN 40.5 µM | PC-3 33.7 µM | Malme-3M 25.2 µM

CC1=NN(c2nc(N)nc(C(C)Cl)n2)C(C)(C)C1 (stereo unspecified)
inactive: HCT-116 > 100 µM | HOP-92 > 100 µM | HL-60 > 100 µM | 786-0 > 100 µM | M14 > 100 µM | CCRF-CEM > 100 µM | UACC-62 > 100 µM | MCF7 > 100 µM | NCI-H23 > 100 µM | IGROV-1 > 100 µM | K562 85.9 µM | SF-295 > 100 µM | BT-549 > 100 µM | Hs-578T > 100 µM | MOLT-4 > 100 µM | SNB-75 > 100 µM | DU-145 > 100 µM | ACHN > 100 µM | PC-3 > 100 µM

COc1cc2c(c(OC)c1OC)C(=O)CC2N (stereo unspecified)
inactive: HCT-116 > 100 µM | HOP-92 > 100 µM | HL-60 > 100 µM | 786-0 > 100 µM | M14 > 100 µM | CCRF-CEM > 100 µM | UACC-62 > 100 µM | MCF7 > 100 µM | NCI-H23 > 100 µM | IGROV-1 > 100 µM | K562 > 100 µM | SF-295 > 100 µM | BT-549 > 100 µM | Hs-578T > 100 µM | MOLT-4 > 100 µM | SNB-75 > 100 µM | ACHN > 100 µM | PC-3 > 100 µM | Malme-3M > 100 µM

O=C(O)C1C2C=CC(O2)C1C(=O)Nc1ccccc1 (stereo unspecified)
inactive: HCT-116 > 100 µM | 786-0 > 100 µM | M14 > 100 µM | CCRF-CEM > 100 µM | UACC-62 > 100 µM | MCF7 > 100 µM | NCI-H23 > 100 µM | IGROV-1 > 100 µM | K562 > 100 µM | SF-295 > 100 µM | BT-549 > 100 µM | Hs-578T > 100 µM | MOLT-4 > 100 µM | SNB-75 > 100 µM | DU-145 > 100 µM | ACHN > 100 µM | PC-3 > 100 µM | Malme-3M > 100 µM

NC(CSc1nc2ccccn2c1[N+](=O)[O-])C(=O)O (stereo unspecified)
inactive: HCT-116 > 100 µM | HOP-92 > 100 µM | 786-0 > 100 µM | M14 > 100 µM | UACC-62 > 100 µM | MCF7 > 100 µM | NCI-H23 > 100 µM | IGROV-1 > 100 µM | K562 > 100 µM | SF-295 > 100 µM | BT-549 > 100 µM | Hs-578T > 100 µM | SNB-75 > 100 µM | DU-145 > 100 µM | ACHN > 100 µM | PC-3 > 100 µM | Malme-3M > 100 µM

C=CC[C@H]1[C@H](O[Si](C)(C)C(C)(C)C)C=CC(=O)[C@@H]1CC(=O)N(Cc1ccccc1)Cc1ccccc1
inactive: HCT-116 8.2 µM | HOP-92 2.09 µM | HL-60 5.48 µM | 786-0 17.5 µM | M14 18.1 µM | CCRF-CEM 7.85 µM | UACC-62 13.5 µM | MCF7 19.5 µM | NCI-H23 5.46 µM | IGROV-1 20.8 µM | K562 4.69 µM | SF-295 15.1 µM | BT-549 16.9 µM | Hs-578T 6.27 µM | MOLT-4 9.93 µM | DU-145 27.2 µM | ACHN 15 µM | PC-3 10.4 µM

O=C(O)CSC(CC(=O)c1ccc(Cl)cc1)c1ccc(Cl)cc1 (stereo unspecified)
inactive: HCT-116 5.77 µM | HOP-92 25.8 µM | HL-60 2.37 µM | 786-0 21.8 µM | M14 42.1 µM | CCRF-CEM 8.71 µM | UACC-62 39.2 µM | MCF7 22.2 µM | NCI-H23 42.7 µM | IGROV-1 19.7 µM | K562 32.1 µM | SF-295 42.4 µM | BT-549 29.9 µM | Hs-578T 34.6 µM | MOLT-4 6.81 µM | SNB-75 49.8 µM | DU-145 34.8 µM | ACHN 79.1 µM | PC-3 37.4 µM
